Inhibition and IC50 data for nine compounds are collected here from patent publication US7592457B2 (Korea Research Institute of Chemical Technology, priority 2004, dated 2009).

For one experiment, the target named is T1, hD3 receptor (Homo sapiens, UniProt P35462).
T1 construct: purchased BioSignal Packard Inc., Montreal, Canada
Description: Radioligand binding, dopamine D3 ([3H]spiperone). The conditions noted are these: read-out: Binding affinity (Inhibition rate % at 10 μM) D3. How it is done: (§1) The radioligands used were [^3H] spiperone (for hD2L and hD3 receptors, 1 nM) and [^3H] YM-09151-2 (for hD4.2 receptor, 0.06 nM). Radioligand bindings were performed by the protocols provided by the supplier of receptor membranes (BioSignal Packard Inc., Montreal, Canada). Briefly, the buffer used in D2 or D3 receptor binding assay was 50 mM Tris-HCl (pH 7.4), 10 mM MgCl2, 1 mM EDTA, or 50 mM Tris-HCl (pH 7.4), 5 mM MgCl2, 5 mM EDTA, 5 mM KCl, 1.5 mM CaCl2, 120 mM NaCl, respectively. In [^3H] YM-09151-2 receptor binding assays, the buffer containing 50 mM Tris-HCl (pH 7.4), 5 mM MgCl2, 5 mM EDTA, 5 mM KCl and 1.5 mM CaCl2 was used. Nonspecific binding was determined with haloperidol (10 μM) or clozapine (10 μM) for D2 and D3, and D4 receptors, respectively. Competition binding studies were carried out with 7-8 concentrations of the test compound run in duplicate tubes, and isotherms from three assays were calculated by computerized nonlinear regression analysis (GraphPad Prism Program, San Diego, […]) to yield median inhibitory concentration (IC50) values.

The target in the next experiment is T2, 5-HT7 (Homo sapiens, UniProt P34969).
T2 construct: purchased Euroscreen/BioSignal Packard Inc
T2 sequence (P34969 whole entry): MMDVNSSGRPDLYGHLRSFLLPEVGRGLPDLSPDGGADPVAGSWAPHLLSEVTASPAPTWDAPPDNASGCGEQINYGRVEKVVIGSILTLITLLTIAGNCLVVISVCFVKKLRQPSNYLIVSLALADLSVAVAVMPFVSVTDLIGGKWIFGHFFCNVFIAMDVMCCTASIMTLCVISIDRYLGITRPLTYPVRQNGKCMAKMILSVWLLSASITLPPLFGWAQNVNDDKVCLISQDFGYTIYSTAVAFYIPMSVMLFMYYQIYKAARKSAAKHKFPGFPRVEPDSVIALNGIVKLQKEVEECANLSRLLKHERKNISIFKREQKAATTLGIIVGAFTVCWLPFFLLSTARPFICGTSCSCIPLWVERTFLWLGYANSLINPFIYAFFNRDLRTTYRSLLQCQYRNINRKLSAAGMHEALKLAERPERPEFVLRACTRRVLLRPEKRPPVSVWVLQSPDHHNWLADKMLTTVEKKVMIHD
Description: Radioligand binding, 5-HT7 ([3H]LSD). To be noted: read-out: Binding affinity (Inhibition rate % at 10 μM) 5HT7. How it is done:
(§2) Radioligand bindings were performed according to the test method provided by the supplier of receptor membrane (Euroscreen/BioSignal Packard Inc.).

For the next experiment, the target named is T3, hD4.2 receptor (Homo sapiens, UniProt P21917, DEL265-296).
T3 construct: purchased BioSignal Packard Inc., Montreal, Canada
T3 sequence (P21917 with tags, fused parts or gaps DEL265-296): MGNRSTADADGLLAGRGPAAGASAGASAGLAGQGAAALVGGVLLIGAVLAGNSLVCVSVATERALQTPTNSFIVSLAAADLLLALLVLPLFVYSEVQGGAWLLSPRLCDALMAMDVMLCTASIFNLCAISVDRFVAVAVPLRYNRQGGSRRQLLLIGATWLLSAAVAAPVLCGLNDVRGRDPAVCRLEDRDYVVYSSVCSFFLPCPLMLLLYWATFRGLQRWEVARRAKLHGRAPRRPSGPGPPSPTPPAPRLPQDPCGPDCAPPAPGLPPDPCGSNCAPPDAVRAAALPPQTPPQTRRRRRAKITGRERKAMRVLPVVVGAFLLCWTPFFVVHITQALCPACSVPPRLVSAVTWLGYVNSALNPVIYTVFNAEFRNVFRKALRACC
Description: Radioligand binding, dopamine D4 ([3H]YM-09151-2). To be noted: read-out: Binding affinity (Inhibition rate % at 10 μM) D4. How it is done:
as §1

The next experiment deals with T4, hD2L receptor (Homo sapiens, UniProt P14416).
T4 construct: purchased BioSignal Packard Inc., Montreal, Canada
T4 sequence (P14416 whole entry): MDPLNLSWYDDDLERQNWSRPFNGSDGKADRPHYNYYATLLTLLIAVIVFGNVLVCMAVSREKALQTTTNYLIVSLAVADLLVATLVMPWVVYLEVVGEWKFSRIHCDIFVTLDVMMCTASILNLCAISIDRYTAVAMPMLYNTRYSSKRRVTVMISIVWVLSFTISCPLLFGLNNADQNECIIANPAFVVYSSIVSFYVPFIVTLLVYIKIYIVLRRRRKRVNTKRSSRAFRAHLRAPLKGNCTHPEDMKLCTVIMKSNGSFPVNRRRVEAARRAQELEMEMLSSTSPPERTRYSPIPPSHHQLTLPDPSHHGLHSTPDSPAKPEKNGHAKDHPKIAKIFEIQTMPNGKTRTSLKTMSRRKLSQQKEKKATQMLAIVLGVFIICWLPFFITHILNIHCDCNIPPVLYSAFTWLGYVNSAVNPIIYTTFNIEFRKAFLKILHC
As to the kind of experiment: Radioligand binding, dopamine D2 ([3H]spiperone). The conditions noted are these: read-out: Binding affinity (Inhibition rate % at 10 μM) D2. How it is done: as §1

The next experiment has as its target D1 (Homo sapiens, UniProt P21728). As to the kind of experiment: Radioligand binding for selectivity, D1. To be noted: read-out: Binding affinity (Inhibition rate % at 10 μM) D1.
A further experiment has as its target T5, 5-HT2c (Homo sapiens, UniProt P28335).
T5 construct: purchased Euroscreen/BioSignal Packard Inc
T5 sequence (P28335 33-458): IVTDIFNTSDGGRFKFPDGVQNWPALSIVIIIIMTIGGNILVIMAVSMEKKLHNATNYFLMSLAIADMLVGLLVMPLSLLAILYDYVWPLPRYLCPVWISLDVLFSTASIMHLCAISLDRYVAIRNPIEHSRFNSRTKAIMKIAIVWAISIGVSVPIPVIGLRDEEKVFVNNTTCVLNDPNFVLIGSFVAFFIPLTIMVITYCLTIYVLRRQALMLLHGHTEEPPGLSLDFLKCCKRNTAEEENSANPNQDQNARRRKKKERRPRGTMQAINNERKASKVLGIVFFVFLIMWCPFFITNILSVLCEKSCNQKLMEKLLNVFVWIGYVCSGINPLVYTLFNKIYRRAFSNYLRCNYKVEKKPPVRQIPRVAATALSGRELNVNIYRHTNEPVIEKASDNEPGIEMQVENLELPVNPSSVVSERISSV
Description: Radioligand binding, 5-HT2c ([3H]Mesulergine). The conditions noted are these: read-out: Binding affinity (Inhibition rate % at 10 μM) 5HT2c. How it is done:
as §2

The target of the next experiment is T6, 5-HT2a (Homo sapiens, UniProt P28223).
T6 construct: purchased Euroscreen/BioSignal Packard Inc
T6 sequence (P28223 whole entry): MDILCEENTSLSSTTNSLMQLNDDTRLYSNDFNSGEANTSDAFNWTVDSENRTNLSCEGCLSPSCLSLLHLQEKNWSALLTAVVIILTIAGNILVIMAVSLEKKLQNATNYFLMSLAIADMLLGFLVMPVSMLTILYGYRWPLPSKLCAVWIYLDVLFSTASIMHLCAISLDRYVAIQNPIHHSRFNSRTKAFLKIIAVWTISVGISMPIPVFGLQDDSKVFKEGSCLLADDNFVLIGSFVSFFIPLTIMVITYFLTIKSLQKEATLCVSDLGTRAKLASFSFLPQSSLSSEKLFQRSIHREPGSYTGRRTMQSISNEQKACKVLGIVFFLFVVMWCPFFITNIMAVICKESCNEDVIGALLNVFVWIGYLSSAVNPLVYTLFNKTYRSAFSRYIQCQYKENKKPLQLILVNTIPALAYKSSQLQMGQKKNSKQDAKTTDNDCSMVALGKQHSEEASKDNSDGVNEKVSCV
As to the kind of experiment: Radioligand binding, 5-HT2a ([3H]Ketanserin). To be noted: read-out: Binding affinity (Inhibition rate % at 10 μM) 5HT2a. How it is done:
as §2

For experiment [1], the target named is T7, human serotonin 5-HT6 receptor (Homo sapiens, UniProt P50406).
T7 construct: made in house; host or cells: Sf21 insect cells (pBacPAK8 baculovirus vector)
T7 sequence (P50406 whole entry): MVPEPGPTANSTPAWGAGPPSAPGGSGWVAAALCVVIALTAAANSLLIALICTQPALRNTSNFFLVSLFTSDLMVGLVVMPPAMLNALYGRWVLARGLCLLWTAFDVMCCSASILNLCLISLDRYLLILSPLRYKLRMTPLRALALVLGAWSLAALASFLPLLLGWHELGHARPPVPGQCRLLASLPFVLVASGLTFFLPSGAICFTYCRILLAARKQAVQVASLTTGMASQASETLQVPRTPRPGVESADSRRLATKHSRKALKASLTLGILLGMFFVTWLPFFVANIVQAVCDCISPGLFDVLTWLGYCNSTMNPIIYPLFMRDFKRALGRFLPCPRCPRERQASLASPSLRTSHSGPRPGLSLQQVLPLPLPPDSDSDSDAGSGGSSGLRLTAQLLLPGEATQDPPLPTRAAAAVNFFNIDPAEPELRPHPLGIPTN
Description: [3H]LSD binding at cloned 5-HT6 receptors. To be noted: for IC50: [3H]LSD 1.87 nM, cloned receptor membranes, 37° C., 60 min, read-out: IC50; for inhibition at 10 µM: read-out: Binding affinity (Inhibition rate % at 10 μM) 5HT6.

In another experiment the target is T8, 5-HT1a (Homo sapiens, UniProt P08908).
T8 construct: purchased Euroscreen/BioSignal Packard Inc
T8 sequence (P08908 1-422): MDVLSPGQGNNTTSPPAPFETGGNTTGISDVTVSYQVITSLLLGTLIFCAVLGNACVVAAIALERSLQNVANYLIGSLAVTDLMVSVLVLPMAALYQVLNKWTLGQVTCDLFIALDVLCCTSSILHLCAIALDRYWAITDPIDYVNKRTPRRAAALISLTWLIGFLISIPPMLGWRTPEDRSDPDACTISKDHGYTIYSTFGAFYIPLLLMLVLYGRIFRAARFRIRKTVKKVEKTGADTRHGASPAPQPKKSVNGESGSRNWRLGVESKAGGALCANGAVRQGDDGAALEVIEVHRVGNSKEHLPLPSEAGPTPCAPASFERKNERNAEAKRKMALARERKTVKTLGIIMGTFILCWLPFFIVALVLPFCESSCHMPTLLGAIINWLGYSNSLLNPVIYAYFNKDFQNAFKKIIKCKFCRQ
As to the kind of experiment: Radioligand binding, 5-HT1a ([3H]8-OH-DPAT). To be noted: read-out: Binding affinity (Inhibition rate % at 10 μM) 5HT1a. How it is done:
as §2

D1, sequence (P21728 whole entry): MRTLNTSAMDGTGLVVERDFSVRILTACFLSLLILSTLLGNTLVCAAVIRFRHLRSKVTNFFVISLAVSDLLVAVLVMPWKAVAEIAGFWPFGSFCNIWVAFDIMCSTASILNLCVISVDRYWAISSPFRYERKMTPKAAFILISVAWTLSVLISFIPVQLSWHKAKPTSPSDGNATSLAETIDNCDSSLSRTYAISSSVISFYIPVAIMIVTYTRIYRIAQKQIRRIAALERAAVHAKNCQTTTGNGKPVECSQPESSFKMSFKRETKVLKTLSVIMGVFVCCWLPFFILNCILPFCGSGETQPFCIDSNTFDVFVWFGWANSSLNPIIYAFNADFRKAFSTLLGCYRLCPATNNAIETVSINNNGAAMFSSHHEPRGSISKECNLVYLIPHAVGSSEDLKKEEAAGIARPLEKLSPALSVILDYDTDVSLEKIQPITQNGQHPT
T1 sequence (P35462 whole entry): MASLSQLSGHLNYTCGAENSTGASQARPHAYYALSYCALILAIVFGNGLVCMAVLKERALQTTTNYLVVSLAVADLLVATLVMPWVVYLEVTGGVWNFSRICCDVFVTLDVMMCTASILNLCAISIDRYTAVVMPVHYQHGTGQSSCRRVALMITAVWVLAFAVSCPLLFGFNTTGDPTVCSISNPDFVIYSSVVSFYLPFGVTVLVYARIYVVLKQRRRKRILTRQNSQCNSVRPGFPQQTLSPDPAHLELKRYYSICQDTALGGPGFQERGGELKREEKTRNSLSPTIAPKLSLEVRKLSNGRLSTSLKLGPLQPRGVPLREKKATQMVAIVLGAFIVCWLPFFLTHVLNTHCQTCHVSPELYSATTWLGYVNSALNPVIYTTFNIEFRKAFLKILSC

Usually inhibition stands for how much of the control response was suppressed. As a reminder, the IC50 is the concentration at which inhibition is half-maximal. Consider `COc1cc(Br)c2c(c1)NC(=O)C(C)(c1ccccc1)C2=O` (stereo not drawn) [Example 7, 5-bromo-7-methoxy-3-methyl-3-phenyl-1H-quinoline-2,4-dione], for which the inhibition at 10 µM was determined as 1.5% at hD3 receptor; 12.4% on 5-HT7; 0.8% at hD4.2 receptor; 12.8% at hD2L receptor; 30.5% on D1; 30.3% on 5-HT2c. Further, the results for the inhibition at 10 µM (at 5-HT2a; in [1]; at 5-HT1a) were 25.4%, 71.1% and 29.1%, respectively. The IC50 in [1] stood at 0.119 µM.

As to `CNc1ccc(C2(C)C(=O)Nc3cc(Cl)cc(Cl)c3C2=O)cc1` (stereo not drawn) [Example 39, 5,7-dichloro-3-methyl-3-(4-methylamino-phenyl)-1H-quinoline-2,4-dione], the inhibition at 10 µM at hD3 receptor was 8.4%; at 5-HT7 it was 9.1%; on hD4.2 receptor, 10.2%; at hD2L receptor it was 19.8%; at D1, 38.5%; on 5-HT2c it was 13.1%. Further, the figures for the inhibition at 10 µM (on 5-HT2a; in [1]; on 5-HT1a) were 12.1%, 72% and 23%, respectively. Further, the IC50 in [1] was 0.418 µM.

On to `CC1(c2ccc([N+](=O)[O-])cc2)C(=O)Nc2cc(Cl)c(Cl)cc2C1=O` (stereo not drawn) [Example 36, 6,7-dichloro-3-methyl-3-(4-nitro-phenyl)-1H-quinoline-2,4-dione], for which the inhibition at 10 µM at hD3 receptor is 11.9%; at 5-HT7, 16.5%; on hD4.2 receptor, 0%; at hD2L receptor, 16.5%; on D1 it was 12.6%; at 5-HT2c, 8.2%. Besides, the inhibition at 10 µM on 5-HT2a is 13.2%; in [1], 71.9%; at 5-HT1a, 42.1%. The IC50 in [1] was 0.645 µM.

As to `CC1(c2ccc(N)cc2)C(=O)Nc2cc(Cl)cc(Cl)c2C1=O` (stereo not drawn) [Example 15, 3-(4-amino-phenyl)-5,7-dichloro-3-methyl-1H-quinoline-2,4-dione], the inhibition at 10 µM came out at 5.8% on hD3 receptor; 11.1% on 5-HT7; 4.5% on hD4.2 receptor; 0% on hD2L receptor; 4.8% on D1; 15.6% at 5-HT2c. Moreover, the inhibition at 10 µM at 5-HT2a is 16.9%; in [1], 73%; at 5-HT1a, 52.3%. Besides, the IC50 in experiment [1] is 0.254 µM.

For `CC1(c2ccc(O)cc2)C(=O)Nc2ccccc2C1=O` (stereo not drawn) [Example 34, 3-(4-hydroxy-phenyl)-3-methyl-1H-quinoline-2,4-dione], the inhibition at 10 µM stood at 25.4% at hD3 receptor; 0.9% on 5-HT7; 0% at hD4.2 receptor; 17.3% on hD2L receptor; 15.8% on D1; 20.1% at 5-HT2c. In addition, the inhibition at 10 µM was found to be 13.5% on 5-HT2a, 70.8% in experiment [1] and 19.8% at 5-HT1a. In addition, the concentration for half-maximal inhibition (IC50) in experiment [1] was 1.26 µM.

Take `CC1(c2ccc(Cl)cc2)C(=O)Nc2cc(Cl)cc(Cl)c2C1=O` (stereo not drawn) [Example 17, 5,7-dichloro-3-(4-chloro-phenyl)-3-methyl-1H-quinoline-2,4-dione]: the inhibition at 10 µM worked out at 16.5% at hD3 receptor; 26.9% at 5-HT7; 0.5% on hD4.2 receptor; 7.5% at hD2L receptor; 13.8% on D1; 21.2% on 5-HT2c. For the same compound, the inhibition at 10 µM on 5-HT2a was 30.2%; in experiment [1] it was 69.8%; at 5-HT1a, 26.7%. Besides, the IC50 in experiment [1] was found to be 1.43 µM.

For the compound `C[C@H](NC(=O)Nc1cccc([C@]2(C)C(=O)Nc3cc(Cl)cc(Cl)c3C2=O)c1)c1ccccc1` [Example 44, 1-(S)-[3-(5,7-dichloro-3-methyl-2,4-dioxo-1,2,3,4-tetrahydro-quinoline-3-yl) -phenyl]-3-(1-(S) -phenyl-ethyl) -urea], the inhibition at 10 µM came out at 16.2% on hD3 receptor; 32.2% at 5-HT7; 0% on hD4.2 receptor; 11.5% at hD2L receptor; 35% on D1; 21.5% at 5-HT2c. Besides, the inhibition at 10 µM on 5-HT2a stood at 58.5%; in experiment [1], 73.8%; on 5-HT1a, 25.4%. Besides, the 50% inhibitory concentration (IC50) in experiment [1] is 0.791 µM.

Regarding `CC1(c2ccc(I)cc2)C(=O)Nc2cc(Cl)cc(Cl)c2C1=O` (stereo not drawn) [Example 16, 5,7-dichloro-3-(4-iodo-phenyl)-3-methyl-1H-quinoline-2,4-dione], the inhibition at 10 µM was determined as 10% on hD3 receptor; 50.7% on 5-HT7; 1.3% on hD4.2 receptor; 20.1% at hD2L receptor; 24.7% at D1; 34.5% at 5-HT2c. Further, the inhibition at 10 µM was 47.2% at 5-HT2a, 70.9% in [1] and 43.5% on 5-HT1a. In addition, in experiment [1], the half-inhibitory concentration (IC50) was found to be 1.55 µM.

Turning to `C[C@H](NC(=O)Nc1cccc([C@@]2(C)C(=O)Nc3cc(Cl)cc(Cl)c3C2=O)c1)c1ccccc1` [Example 43, 1-(R)-[3-(5,7-dichloro-3-methyl-2,4-dioxo-1,2,3,4-tetrahydro-quinoline-3-yl) -phenyl]-3-(1-(S) -phenyl-ethyl) -urea], the inhibition at 10 µM came to 24% at hD3 receptor; 5% on 5-HT7; 6.1% at hD4.2 receptor; 5.7% on hD2L receptor; 30.1% at D1; 0% on 5-HT2c. In addition, the inhibition at 10 µM at 5-HT2a was 21.3%; in experiment [1], 70.6%; at 5-HT1a, 18%. In addition, in [1], the half-maximal inhibitory concentration (IC50) was 1.11 µM.
